The structures appear in SMILES notation.

The assay has as its target T1, N-terminally GST-tagged human full length recombinant Mps-1 kinase (Homo sapiens, UniProt P33981).
T1 construct: N-terminally GST-tagged human full length recombinant Mps-1 kinase; purchased Invitrogen, Karslruhe, Germany PV4071
T1 sequence (P33981 1-857): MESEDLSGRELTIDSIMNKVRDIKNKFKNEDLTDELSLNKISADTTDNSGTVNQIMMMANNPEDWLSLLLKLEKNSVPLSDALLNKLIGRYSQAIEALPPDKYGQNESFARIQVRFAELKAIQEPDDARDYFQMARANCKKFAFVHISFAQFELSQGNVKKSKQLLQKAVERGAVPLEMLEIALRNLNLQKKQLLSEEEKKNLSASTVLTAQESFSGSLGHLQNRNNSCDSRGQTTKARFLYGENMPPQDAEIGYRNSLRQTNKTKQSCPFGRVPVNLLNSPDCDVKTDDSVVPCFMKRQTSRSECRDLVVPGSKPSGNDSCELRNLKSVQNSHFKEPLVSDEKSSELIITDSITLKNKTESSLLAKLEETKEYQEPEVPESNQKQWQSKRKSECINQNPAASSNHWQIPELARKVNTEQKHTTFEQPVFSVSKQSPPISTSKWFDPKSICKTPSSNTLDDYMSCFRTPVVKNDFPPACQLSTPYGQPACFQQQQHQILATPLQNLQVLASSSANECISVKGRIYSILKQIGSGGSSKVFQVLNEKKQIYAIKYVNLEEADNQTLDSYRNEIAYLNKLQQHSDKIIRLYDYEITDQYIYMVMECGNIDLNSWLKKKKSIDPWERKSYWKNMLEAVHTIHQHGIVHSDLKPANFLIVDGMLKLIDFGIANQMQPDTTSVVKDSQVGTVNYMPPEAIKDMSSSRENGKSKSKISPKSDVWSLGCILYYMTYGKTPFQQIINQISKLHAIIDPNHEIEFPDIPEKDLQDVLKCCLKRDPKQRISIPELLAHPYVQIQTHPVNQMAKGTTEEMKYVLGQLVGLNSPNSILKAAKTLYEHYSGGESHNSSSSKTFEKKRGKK
The assay is described as follows: Mps-1 kinase assay (TR-FRET). Conditions: Mps1 IC50 [nM], 10 μM ATP, 1 μM peptide substrate, 60 min at 22° C. Format: biochemical. The gist of the method: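 TR-FRET signal between a Europium anti-phospho-Ser/Thr antibody and streptavidin-XLent reported phosphorylation of a biotinylated peptide by GST-tagged full-length Mps-1. Enzyme was near 1 nM final, chosen per lot for linearity.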
Background: In TR-FRET formats the signal depends on donor and acceptor labels being close together.
Consider `COc1ccc(Nc2cc(NCC(C)(C)O)c3ncc(-c4ccc(C(=O)NC5CC5)c(C)c4)n3n2)cc1F` [Example 353, N-cyclopropyl-4-{6-[(3-fluoro-4-methoxyphenyl)amino]-8-[(2-hydroxy-2-methylpropyl)amino]imidazo[1,2-b]pyridazin-3-yl}-2-methylbenzamide], for which the IC50 was determined as 0.4 nM. With `COc1ccc(Nc2cc(NCC(C)(C)O)c3ncc(-c4ccc(C(=O)NC5CC5)c(C)c4)n3n2)cc1` [Example 354, N-cyclopropyl-4-{8-[(2-hydroxy-2-methylpropyl)amino]-6-[(4-methoxyphenyl)amino]imidazo[1,2-b]pyridazin-3-yl}-2-methylbenzamide] the figure was 0.4 nM. With `Cc1cc(-c2cnc3c(NCC(C)(C)O)cc(Nc4cccc(Cl)c4)nn23)ccc1C(=O)NC1CC1` [Example 355, 4-{6-[(3-chlorophenyl)amino]-8-[(2-hydroxy-2-methylpropyl)amino]imidazo[1,2-b]pyridazin-3-yl}-N-cyclopropyl-2-methylbenzamide] the figure was 0.9 nM.

For the compound `Cc1cc(-c2cnc3c(NCC(C)(C)O)cc(Nc4ccc(F)cc4F)nn23)ccc1C(=O)NC1CC1` [Example 356, N-cyclopropyl-4-{6-[(2,4-difluorophenyl)amino]-8-[(2-hydroxy-2-methylpropyl)amino]imidazo[1,2-b]pyridazin-3-yl}-2-methylbenzamide], the IC50 was 0.6 nM. Under `Cc1cc(-c2cnc3c(NCC(C)(C)O)cc(Nc4ccccn4)nn23)ccc1C(=O)NC1CC1` [Example 357, N-cyclopropyl-4-{8-[(2-hydroxy-2-methylpropyl)amino]-6-(pyridin-2-ylamino)imidazo[1,2-b]pyridazin-3-yl}-2-methylbenzamide] stands 4.4 nM; under `Cc1cc(-c2cnc3c(NCCC(F)(F)F)cc(Nc4ccc(F)cc4)nn23)ccc1C(=O)NC1CC1` [Example 358, N-cyclopropyl-4-{6-[(4-fluorophenyl)amino]-8-[(3,3,3-trifluoropropyl)amino]imidazo[1,2-b]pyridazin-3-yl}-2-methylbenzamide], 0.1 nM; under `Cc1cc(-c2cnc3c(NCC(C)(C)O)cc(Nc4cccnc4)nn23)ccc1C(=O)NC1CC1` [Example 359, N-cyclopropyl-4-{8-[(2-hydroxy-2-methylpropyl)amino]-6-(pyridin-3-ylamino)imidazo[1,2-b]pyridazin-3-yl}-2-methylbenzamide], 1.2 nM. In the case of `Cc1ccc(Sc2cc(NCC(C)(C)O)c3ncc(-c4ccc(C(=O)NC5CC5)c(C)c4)n3n2)c(F)c1` [Example 360, N-cyclopropyl-4-{6-[(2-fluoro-4-methylphenyl)sulfanyl]-8-[(2-hydroxy-2-methylpropyl)amino]imidazo[1,2-b]pyridazin-3-yl}-2-methylbenzamide], the IC50 stood at 0.9 nM. With `Cc1cc(-c2cnc3c(NCC(C)(C)O)cc(Oc4cccc(OC(C)C)c4)nn23)ccc1C(=O)NC1CC1` [Example 361, N-cyclopropyl-4-{8-[(2-hydroxy-2-methylpropyl)amino]-6-(3-isopropoxyphenoxy)imidazo[1,2-b]pyridazin-3-yl}-2-methylbenzamide] the figure was 0.3 nM; with `Cc1ccc(Sc2cc(NCCC(F)(F)F)c3ncc(-c4ccc(C(=O)NC5CC5)c(C)c4)n3n2)c(F)c1` [Example 362, N-cyclopropyl-4-{6-[(2-fluoro-4-methylphenyl)sulfanyl]-8-[(3,3,3-trifluoropropyl)amino]imidazo[1,2-b]pyridazin-3-yl}-2-methylbenzamide], 0.2 nM.

As for `Cc1cc(-c2cnc3c(NCC(C)(C)O)cc(Nc4ccncc4)nn23)ccc1C(=O)NC1CC1` [Example 365, N-cyclopropyl-4-{8-[(2-hydroxy-2-methylpropyl)amino]-6-(pyridin-4-ylamino)imidazo[1,2-b]pyridazin-3-yl}-2-methylbenzamide], the IC50 was determined as 4.4 nM. With `COc1ccc(Nc2cc(NCC(C)(C)O)c3ncc(-c4ccc(C(=O)NC5CC5)c(C)c4)n3n2)cn1` [Example 366, N-cyclopropyl-4-{8-[(2-hydroxy-2-methylpropyl)amino]-6-[(6-methoxypyridin-3-yl)-amino]imidazo[1,2-b]pyridazin-3-yl}-2-methylbenzamide] the figure was 1.1 nM. Under `Cc1ccc(F)c(Nc2cc(NCCC(F)(F)F)c3ncc(-c4ccc(C(=O)NC5CC5)c(C)c4)n3n2)c1` [Example 367, N-cyclopropyl-4-{6-[(2-fluoro-5-methylphenyl)amino]-8-[(3,3,3-trifluoropropyl)amino]imidazo[1,2-b]pyridazin-3-yl}-2-methylbenzamide] stands 0.1 nM. Under `Cc1cc(-c2cnc3c(NCCC(F)(F)F)cc(Nc4ccccc4)nn23)ccc1C(=O)NC1CC1` [Example 368, 4-{6-anilino-8-[(3,3,3-trifluoropropyl)amino]imidazo[1,2-b]pyridazin-3-yl}-N-cyclopropyl-2-methylbenzamide] stands 0.1 nM. For the compound `Cc1cc(-c2cnc3c(NCCC(F)(F)F)cc(Nc4ccccc4F)nn23)ccc1C(=O)NC1CC1` [Example 369, N-cyclopropyl-4-{6-[(2-fluorophenyl)amino]-8-[(3,3,3-trifluoropropyl)amino]imidazo[1,2-b]pyridazin-3-yl}-2-methylbenzamide], the IC50 was 0.1 nM.

For the compound `Cc1cc(-c2cnc3c(NCCC(F)(F)F)cc(Nc4ccccc4CO)nn23)ccc1C(=O)NC1CC1` [Example 370], the 50% inhibitory concentration (IC50) was determined as 0.1 nM. As to `Cc1cc(F)cc(Nc2cc(NCCC(F)(F)F)c3ncc(-c4ccc(C(=O)NC5CC5)c(C)c4)n3n2)c1` [Example 371, N-cyclopropyl-4-{6-[(3-fluoro-5-methylphenyl)amino]-8-[(3,3,3-trifluoropropyl)amino]imidazo[1,2-b]pyridazin-3-yl}-2-methylbenzamide], the IC50 stood at 0.2 nM. Under `Cc1cc(-c2cnc3c(NCCC(F)(F)F)cc(Nc4ccc(Cl)c(F)c4)nn23)ccc1C(=O)NC1CC1` [Example 372, 4-{6-[(4-chloro-3-fluorophenyl)amino]-8-[(3,3,3-trifluoropropyl)amino]imidazo[1,2-b]pyridazin-3-yl}-N-cyclopropyl-2-methylbenzamide] stands 0.2 nM. With `Cc1cc(-c2cnc3c(NCCC(F)(F)F)cc(Nc4ccc(F)c(F)c4)nn23)ccc1C(=O)NC1CC1` [Example 373, N-cyclopropyl-4-{6-[(3,4-difluorophenyl)amino]-8-[(3,3,3-trifluoropropyl)amino]imidazo[1,2-b]pyridazin-3-yl}-2-methylbenzamide] the figure was 0.2 nM; with `Cc1cc(-c2cnc3c(NCCC(F)(F)F)cc(Nc4ccc(Cl)cc4)nn23)ccc1C(=O)NC1CC1` [Example 374, 4-{6-[(4-chlorophenyl)amino]-8-[(3,3,3-trifluoropropyl)amino]imidazo[1,2-b]pyridazin-3-yl}-N-cyclopropyl-2-methylbenzamide], 0.3 nM. With `Cc1ccc(F)cc1Nc1cc(NCCC(F)(F)F)c2ncc(-c3ccc(C(=O)NC4CC4)c(C)c3)n2n1` [Example 375, N-cyclopropyl-4-{6-[(5-fluoro-2-methylphenyl)amino]-8-[(3,3,3-trifluoropropyl)amino]imidazo[1,2-b]pyridazin-3-yl}-2-methylbenzamide] the figure was 0.1 nM; with `Cc1cc(-c2cnc3c(NCCC(F)(F)F)cc(Nc4ccc(Cl)cc4F)nn23)ccc1C(=O)NC1CC1` [Example 376, 4-{6-[(4-chloro-2-fluorophenyl)amino]-8-[(3,3,3-trifluoropropyl)amino]imidazo[1,2-b]pyridazin-3-yl}-N-cyclopropyl-2-methylbenzamide], 0.2 nM. For `Cc1ccc(Cl)cc1Nc1cc(NCCC(F)(F)F)c2ncc(-c3ccc(C(=O)NC4CC4)c(C)c3)n2n1` [Example 377, 4-{6-[(5-chloro-2-methylphenyl)amino]-8-[(3,3,3-trifluoropropyl)amino]imidazo[1,2-b]pyridazin-3-yl}-N-cyclopropyl-2-methylbenzamide], the concentration for half-maximal inhibition (IC50) was found to be 0.3 nM. With `Cc1cc(-c2cnc3c(NCCC(F)(F)F)cc(Nc4cc(F)cc(F)c4)nn23)ccc1C(=O)NC1CC1` [Example 378, N-cyclopropyl-4-{6-[(3,5-difluorophenyl)amino]-8-[(3,3,3-trifluoropropyl)amino]imidazo[1,2-b]pyridazin-3-yl}-2-methylbenzamide] the figure was 0.2 nM; with `Cc1cc(-c2cnc3c(NCCC(F)(F)F)cc(Nc4cccc(Cl)c4)nn23)ccc1C(=O)NC1CC1` [Example 379, 4-{6-[(3-chlorophenyl)amino]-8-[(3,3,3-trifluoropropyl)amino]imidazo[1,2-b]pyridazin-3-yl}-N-cyclopropyl-2-methylbenzamide], 0.2 nM.

Broadly, the IC50 is the point on the concentration scale where inhibition reaches its midpoint.

For the origin of these results see US9255100B2 (BAYER INTELLECTUAL PROPERTY GMBH, priority 2010, dated 2016).
